Reference: ChEMBL document CHEMBL3046432, “Synthesis of new series of pyrimido[4,5-b][1,4] benzothiazines as 15-lipoxygenase inhibitors and study of their inhibitory mechanism” (Med Chem Res, 2013)

Columns and labels:
[1] = molecular target: T1, Seed linoleate 13S-lipoxygenase-1 (Glycine max, UniProt P08170); test: Inhibition of Glycine max (soybean) 15-lipoxygenase activity assessed as decrease in peroxide formation using linoleic acid as substrate preincubated with enzyme for 5 min prior to substrate addition measured after 7 min by MBTH-DMAB method
T1 sequence (P08170 whole entry): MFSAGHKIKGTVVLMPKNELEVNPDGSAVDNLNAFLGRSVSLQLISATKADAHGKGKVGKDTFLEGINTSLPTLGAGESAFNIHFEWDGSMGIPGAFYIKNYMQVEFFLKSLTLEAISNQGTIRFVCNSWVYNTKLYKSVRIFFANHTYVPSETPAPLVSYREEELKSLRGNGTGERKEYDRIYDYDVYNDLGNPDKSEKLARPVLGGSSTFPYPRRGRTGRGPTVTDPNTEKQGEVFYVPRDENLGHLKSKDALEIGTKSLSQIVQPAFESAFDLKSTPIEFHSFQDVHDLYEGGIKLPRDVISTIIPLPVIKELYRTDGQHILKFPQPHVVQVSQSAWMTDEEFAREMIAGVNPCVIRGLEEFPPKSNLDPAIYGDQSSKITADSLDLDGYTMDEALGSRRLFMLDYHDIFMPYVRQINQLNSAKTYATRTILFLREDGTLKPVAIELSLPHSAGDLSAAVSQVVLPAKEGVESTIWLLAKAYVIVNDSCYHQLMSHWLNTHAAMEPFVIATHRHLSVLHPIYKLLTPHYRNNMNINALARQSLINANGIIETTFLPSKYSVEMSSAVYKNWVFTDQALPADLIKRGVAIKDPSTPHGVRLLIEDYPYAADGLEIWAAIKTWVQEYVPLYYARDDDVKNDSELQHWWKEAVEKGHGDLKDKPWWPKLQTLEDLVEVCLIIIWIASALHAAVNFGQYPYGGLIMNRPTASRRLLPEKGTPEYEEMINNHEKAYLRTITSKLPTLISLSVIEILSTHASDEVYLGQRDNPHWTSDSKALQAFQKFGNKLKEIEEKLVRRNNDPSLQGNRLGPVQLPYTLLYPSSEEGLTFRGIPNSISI

[2] = tested on: Radical scavenging activity; test: Antioxidant activity assessed as inhibition of DPPH radical […]; assay type: functional
[3] = molecular target: T1, Seed linoleate 13S-lipoxygenase-1; test: Inhibition of Glycine max (soybean) 15-lipoxygenase activity using linoleic acid as substrate by MBTH-DMAB method

| Ki [1] [µM] | IC50 [2] [µM] | IC50 [3] [µM] | SMILES |
| --- | --- | --- | --- |
| 1.84 | 311 | 611 | CCCc1nc(N2CCCC2)nc2c1Nc1ccccc1S2 |
| 0.662 | 621 | 121 | CCCc1nc(N2CCCCC2)nc2c1Nc1ccccc1S2 |
| 0.486 | 599 | 86.3 | CCCc1nc(N2CCC(C)CC2)nc2c1Nc1ccccc1S2 |
| 2.01 | 669 | 726 | CCCc1nc(N2CCOCC2)nc2c1Nc1ccccc1S2 |
| 1.16 | 357 | 404 | CCCc1nc(N2CCN(c3ccccc3)CC2)nc2c1Nc1ccccc1S2 |
| 0.192 | 17.3 | 8.9 | CCCc1nc(N2CCN(C)CC2)nc2c1Nc1ccccc1S2 |
| 0.198 | 69.6 | 19.5 | Cc1nc(N2CCN(C)CC2)nc2c1Nc1ccccc1S2 |
